Converted amounts (≈) assume the structure as drawn. “Also recorded” adds a separate entry of the source.
Key:
in vitro = settings: African green monkey
ftuFabI [1] = target: T1, ftuFabI (Francisella tularensis subsp. tularensis, UniProt Q5NGQ3); assay: biochemical; assay type: biochemical
F. tularensis Schu4 = test system: F. tularensis Schu4; design: species or system mice; settings: mouse, in vivo; for %Survival: ip, 200 mg/kg
F. tularensis LVS = assay: microbe, parasite or virus in culture; assay type: cell-based, Francisella tularensis; settings: for MIC90: Francisella tularensis
ftuFabI [2] = target: T1, ftuFabI; assay type: biochemical
ftuFabI [3] = target: T1, ftuFabI; assay type: biochemical; remark: listed apart in the source
ecFabI = settings: cited from earlier work

T1 sequence (Q5NGQ3 1-260): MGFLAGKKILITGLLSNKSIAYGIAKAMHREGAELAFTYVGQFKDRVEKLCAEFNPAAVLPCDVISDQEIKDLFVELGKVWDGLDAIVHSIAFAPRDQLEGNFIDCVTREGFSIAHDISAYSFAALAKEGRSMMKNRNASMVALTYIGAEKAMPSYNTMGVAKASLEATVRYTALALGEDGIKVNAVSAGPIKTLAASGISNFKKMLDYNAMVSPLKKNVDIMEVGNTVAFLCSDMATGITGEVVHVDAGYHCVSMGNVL

| Structure (SMILES) | CC50 (in vitro) | Ki (ftuFabI [1]) | k2 (ftuFabI [1]) | k−2 (ftuFabI [1]) | residence time (ftuFabI [1]) | Median Survival (F. tularensis Schu4) | efficacy in the 10-day animal model of infection (F. tularensis Schu4) | %Survival (F. tularensis Schu4) | MIC90 (F. tularensis LVS) | Type of Inhibition (ftuFabI [2]) | also measured |
| --- | --- | --- | --- | --- | --- | --- | --- | --- | --- | --- | --- |
| Oc1cc(Cl)ccc1Oc1ccc(Cl)cc1Cl [Compound 1, triclosan, reference compound] | 14000 ± 1000 ng/mL (≈ 48.4 µM) | 0.407 ± 0.048 µM | 0.56 ± 0.04 min⁻¹ | 0.025 ± 0.003 min⁻¹ | 40 ± 3 min | 7.8 days | demonstrated efficacy | 22% | 0.015 ng/mL (≈ 5.18e-05 µM) | uncompetitive inhibitor; also recorded: Slow-onset | fold tighter binding to E:NAD+ than to E:NADH (ftuFabI [2]): approximately 90,000 fold |
| Oc1cc(F)ccc1Oc1ccccc1 [Compound 3, 5-fluoro-2-phenoxyphenol] | – | – | – | – | – | – | – | – | 320 ± 20 ng/mL (≈ 1.57 µM) | not a slow-onset inhibitor; also recorded: Rapid equilibrium | fold decrease in binding affinity compared to 4 and 7 (ftuFabI [3]): 150 fold |
| Oc1cc(Cl)ccc1Oc1ccccc1 [Compound 4, 5-chloro-2-phenoxyphenol] | 60000 ± 14000 ng/mL (≈ 272 µM) | 0.665 ± 0.07 µM | 0.11 ± 0.01 min⁻¹ | 0.033 ± 0.002 min⁻¹ | 30 ± 2 min | 6.8 days | demonstrated efficacy | 11% | 1 ± 1 ng/mL (≈ 0.00453 µM) | Slow-onset | fold higher affinity for ecFabI than triclosan (ecFabI): 7 fold; fold decrease in affinity for ftuFabI compared to triclosan (ftuFabI [2]): 37 fold |
| Cc1ccc(Oc2ccccc2)c(O)c1 [Compound 7, 5-methyl-2-phenoxyphenol] | – | – | – | – | – | – | – | – | 160 ± 70 ng/mL (≈ 0.799 µM) | slow-onset inhibitors | – |
| CCCc1ccc(Oc2ccccc2)c(O)c1 [Compound 9, 5-propyl-2-phenoxyphenol] | 62000 ± 3000 ng/mL (≈ 272 µM) | 0.375 ± 0.006 µM | 1.66 ± 0.01 min⁻¹ | 0.017 ± 0.002 min⁻¹ | 59 ± 2 min | 7.8 days | demonstrated efficacy | 39% | 0.18 ± 0.14 ng/mL (≈ 0.000788 µM) | slow-onset inhibitors | fold more potent (MIC90) than doxycycline (F. tularensis LVS): > 4,000 fold; fold more potent (MIC90) than gentamicin (F. tularensis LVS): more than 22,000 fold |
| C[C@H]1c2cccc(O)c2C(=O)C2=C(O)[C@]3(O)C(=O)C(C(N)=O)=C(O)[C@@H](N(C)C)[C@@H]3[C@@H](O)[C@@H]21 [Doxycycline, reference compound] | – | – | – | – | – | – | – | – | 750 ± 350 ng/mL (≈ 1.69 µM) | – | – |
| CNC(C)C1CCC(N)C(OC2C(N)CC(N)C(OC3OCC(C)(O)C(NC)C3O)C2O)O1 (stereo not shown) [Gentamicin, reference compound] | – | – | – | – | – | – | – | – | 4000 ng/mL (≈ 8.38 µM) | – | – |
| [H]/N=C(/N)N[C@H]1[C@H](O)[C@@H](O)[C@H](O[C@@H]2O[C@@H](C)[C@](O)(C=O)[C@H]2O[C@@H]2O[C@@H](CO)[C@H](O)[C@@H](O)[C@@H]2NC)[C@@H](N/C(N)=N\[H])[C@@H]1O [Streptomycin, reference compound] | – | – | – | – | – | – | – | – | 2000 ng/mL (≈ 3.44 µM) | – | – |
